The text below walks through data of PubChem BioAssay (NCI).

Some test systems named below: OVCAR-8 ovarian; A549 NSCLC; TK-10 renal; MOLT-4 leukemia; RPMI-8226 leukemia; NCI/ADR-RES ovarian; MALME-3M melanoma; DU-145 prostate; UO-31 renal; HCT-15 colon; HCC-2998 colon; PC-3 prostate; SF-268 CNS; CAKI-1 renal; NCI-H23 lung; SK-MEL-28 melanoma; COLO 205 colon; T-47D breast; HL-60(TB) leukemia; NCI-H460 lung.
Common to all, as to assay: growth of human tumour cells (NCI), 48 h

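Results reflect a 48-hour exposure of cells in 96-well plates to compound at five concentrations. TGI: concentration producing complete growth inhibition.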

On to `CC1(c2nc3cc(Cl)c(Cl)cc3[nH]2)CCC(C(=O)O)C(C)(C)O1` (stereo not drawn), for which the TGI in the assay with OVCAR-8 ovarian, in the assay with A549 NSCLC, in the assay on TK-10 renal, with MOLT-4 leukemia, in the assay with RPMI-8226 leukemia and with NCI/ADR-RES ovarian was above 100 µM in each case. In addition, the TGI with MALME-3M melanoma, in the assay with DU-145 prostate, in the assay on UO-31 renal, with HCT-15 colon, in the assay on HCC-2998 colon and with PC-3 prostate was above 100 µM each time. Moreover, the TGI in the assay on SF-268 CNS, with CAKI-1 renal, in the assay with NCI-H23 lung, in the assay on SK-MEL-28 melanoma, in the assay on COLO 205 colon and in the assay on T-47D breast was above 100 µM each time. This compound also displayed a TGI in the assay with HL-60(TB) leukemia above 100 µM.

Take `CCCCN1C(=O)C[C@H]2[C@@H]3CCc4cc(OCCN5CCCC5)ccc4[C@H]3CC[C@]2(C)C1=O`: the TGI in the assay with OVCAR-8 ovarian was found to be 30.8 µM; in the assay on A549 NSCLC it was 22.5 µM; with TK-10 renal, 28.3 µM; in the assay with MOLT-4 leukemia, 14.3 µM; in the assay on RPMI-8226 leukemia, 9.53 µM; in the assay on NCI/ADR-RES ovarian it was 38 µM. For the same compound, the TGI in the assay on MALME-3M melanoma was 16.1 µM; in the assay on DU-145 prostate, 27 µM; with UO-31 renal, 15.6 µM; in the assay on HCT-15 colon, 22.4 µM; in the assay with HCC-2998 colon it was 15.8 µM; in the assay with PC-3 prostate, 20.4 µM. Also, the TGI turned out to be 28 µM with SF-268 CNS; 19.2 µM with CAKI-1 renal; 25.6 µM with NCI-H23 lung; 12 µM with SK-MEL-28 melanoma; 21.3 µM with NCI-H460 lung; 3.95 µM in the assay on COLO 205 colon. Besides, the TGI in the assay with T-47D breast was 30.4 µM; in the assay on HL-60(TB) leukemia, above 23.2 µM.

Consider `CCOC(=O)C(SCCO)C(C(=O)OCC)n1cc(C)c(=O)[nH]c1=O` (stereo not drawn), for which the TGI with OVCAR-8 ovarian was above 62.7 µM; in the assay on A549 NSCLC, above 100 µM; in the assay on TK-10 renal it was above 82.5 µM; with MOLT-4 leukemia, 42.1 µM; in the assay on RPMI-8226 leukemia, 44.4 µM; with NCI/ADR-RES ovarian, above 86.6 µM. The TGI in the assay on MALME-3M melanoma was 38.6 µM; with DU-145 prostate, above 100 µM; in the assay on UO-31 renal, above 62.8 µM; with HCT-15 colon, 25.7 µM; in the assay with HCC-2998 colon, above 78.9 µM; in the assay on PC-3 prostate, 34.6 µM. Also, the TGI in the assay on SF-268 CNS is above 100 µM; with CAKI-1 renal, 18.2 µM; in the assay on NCI-H23 lung it was above 78.7 µM; in the assay with SK-MEL-28 melanoma, above 65.6 µM; in the assay with NCI-H460 lung it was above 100 µM; in the assay on COLO 205 colon, 23.3 µM. In addition, the TGI with T-47D breast was above 100 µM; with HL-60(TB) leukemia it was 4.88 µM.

On to `COc1cc2c(cc1OC)C(=O)/C(=C/c1ccccc1)C2`, for which the TGI was above 100 µM in the assay with OVCAR-8 ovarian; above 100 µM in the assay with A549 NSCLC; above 100 µM in the assay with TK-10 renal; 43.9 µM in the assay on MOLT-4 leukemia; 71.6 µM with RPMI-8226 leukemia; above 100 µM in the assay with NCI/ADR-RES ovarian. For the same compound, the TGI in the assay with MALME-3M melanoma, in the assay with DU-145 prostate, in the assay on UO-31 renal, with HCT-15 colon, with HCC-2998 colon and with PC-3 prostate was above 100 µM in each case. The TGI in the assay with SF-268 CNS, with CAKI-1 renal, in the assay on NCI-H23 lung, with SK-MEL-28 melanoma, in the assay on NCI-H460 lung and with COLO 205 colon was above 100 µM each time. For the same compound, the TGI with T-47D breast is above 100 µM; with HL-60(TB) leukemia, 50 µM.

`CN(C)CC1CN(C(=O)Nc2ccccc2)C(=N)O1` (stereo not drawn): the TGI in the assay on OVCAR-8 ovarian, with A549 NSCLC, in the assay with TK-10 renal, with MOLT-4 leukemia, in the assay on RPMI-8226 leukemia and in the assay on NCI/ADR-RES ovarian was above 100 µM in each case. Moreover, the TGI in the assay on MALME-3M melanoma, in the assay on DU-145 prostate, in the assay with UO-31 renal, with HCT-15 colon, in the assay on HCC-2998 colon and with PC-3 prostate was above 100 µM each time. For the same compound, the TGI in the assay with SF-268 CNS, in the assay with CAKI-1 renal, with NCI-H23 lung, in the assay on SK-MEL-28 melanoma, in the assay with NCI-H460 lung and in the assay on COLO 205 colon was above 100 µM throughout. The TGI in the assay with T-47D breast and in the assay on HL-60(TB) leukemia was above 100 µM in each case.

As to `Cc1ccc2nc(Cl)c(/C=N/N3C(=O)/C(=C/Cc4ccco4)N=C3c3ccccc3)cc2c1`, the TGI with OVCAR-8 ovarian is above 68.2 µM; with A549 NSCLC it was above 93.5 µM; in the assay with TK-10 renal it was 55.5 µM; in the assay on MOLT-4 leukemia, above 92 µM; with RPMI-8226 leukemia, 61.8 µM; in the assay on NCI/ADR-RES ovarian, above 90.5 µM. Moreover, the TGI with MALME-3M melanoma is above 100 µM; with DU-145 prostate, above 79.5 µM; with UO-31 renal it was above 74.7 µM; in the assay with HCT-15 colon it was above 97.1 µM; with HCC-2998 colon, 75.8 µM; with PC-3 prostate it was above 100 µM. Also, the TGI in the assay with SF-268 CNS is 70.6 µM; in the assay with CAKI-1 renal, above 100 µM; in the assay on NCI-H23 lung, above 84.5 µM; in the assay with SK-MEL-28 melanoma, above 100 µM; in the assay on NCI-H460 lung, 75.9 µM; with COLO 205 colon, above 100 µM. For the same compound, the TGI is above 100 µM in the assay with T-47D breast and 55.9 µM with HL-60(TB) leukemia.

As to `C[C@]12CCC(=O)C=C1CC[C@@H]1[C@@H]2CC[C@]2(C)C(=O)/C(=C\c3ccccc3)C[C@@H]12`, the TGI in the assay with OVCAR-8 ovarian is above 100 µM; in the assay with A549 NSCLC, above 68 µM; in the assay on TK-10 renal, above 100 µM; with MOLT-4 leukemia it was above 57 µM; with RPMI-8226 leukemia, above 26.1 µM; in the assay on NCI/ADR-RES ovarian, 72.7 µM. Moreover, the TGI with MALME-3M melanoma is 73.9 µM; in the assay with DU-145 prostate, above 100 µM; with UO-31 renal, above 70.6 µM; in the assay on HCT-15 colon it was above 100 µM; in the assay on HCC-2998 colon, 35.9 µM; in the assay with PC-3 prostate it was above 53.3 µM. For the same compound, the TGI with CAKI-1 renal is above 100 µM; with NCI-H23 lung, 62.5 µM; in the assay with SK-MEL-28 melanoma, above 81.4 µM; in the assay on NCI-H460 lung, above 66 µM; in the assay on COLO 205 colon, 55.9 µM; in the assay on T-47D breast it was above 86.7 µM. The compound further registered a TGI with HL-60(TB) leukemia above 50.5 µM.
